Legend:
[1] = TLR-agonist release from UPy-PEG hydrogels; format: physicochemical; conditions: Polymer 6, 6 and 10 wt %, 0.5 mM MEDI9197 (FIG. 11B)
Experimental: The TLR-agonist resiquimod (synonym R848) was loaded from a stock solution (50 mM in DMSO) to 1.27 mM in the hydrogel. The TLR-agonist telratolimod (synonym MEDI9197) was loaded from a stock solution (10 mM in DMSO) to 0.5 mM in the hydrogel.
The drug loaded solution (100 μL) was transferred to a Millicell insert, which was placed in a 24-wells plate filled with PBS pH 7.4 (700 μL). At set time points the PBS was refreshed and the removed PBS was analyzed for R848 content UV absorbance at 320 nm. For MEDI9197, PBS was substituted for a volatile ammonium carbonate buffer and a HPLC-MS method was used. Release experiments were performed with n=3.

[2] = Mitomycin C release from UPy-PEG hydrogels; format: physicochemical
Experimental: Mitomycin C was loaded from a stock solution (52 mM in DMSO) to 0.52 mM in the hydrogel solution. The drug loaded solution (100 μL) was transferred to a Millicell insert, which was placed in a 24-wells plate filled with PBS pH 7.4 (600 μL). At set time points the PBS was refreshed and the removed PBS was analyzed for drug content UV absorbance at 363 nm. Release experiments were performed with n=3.

[3] = Drug release from thermoreversible RTGel hydrogel; format: physicochemical; conditions: 0.4 mM, PBS pH 7.4 (FIG. 10)
Experimental: RTGel hydrogel was formulated using the following ingredients and quantities:
Mitomycin C and chol-MMC were loaded from a stock solution (30 mM in DMSO) to 0.4 mM in the hydrogel solution. The drug loaded solution (100 μL) was cooled and transferred to a Millicell insert, which was placed in a 24-wells plate filled with PBS pH 7.4 (600 μL). At set time points the PBS was refreshed and the removed PBS was analyzed for drug content UV absorbance at 363 nm. Release experiments were performed with n=3.

[4] = in vivo; cited from earlier work
[5] = test system: patients; conditions: dosing regimens of 35 mg/m2; cited from earlier work
[6] = test system: mice with peritoneal metastases; conditions: intraperitoneal lavage for 90 minutes versus 60 minutes; cited from earlier work
[7] = test system: tumor cell lines; conditions: cited from earlier work
[8] = Mitomycin C and VX970 combined release from hydrogel; format: physicochemical; conditions: Polymer 7, 5 wt %, 12 μg/ml VX970 with 0.52 mM MMC (FIG. 7)
Experimental: Mitomycin C (MMC) was loaded from a stock solution (52 mM in DMSO) to 0.52 mM in the hydrogel solution. VX970 was loaded from a stock solution (1.2 mg/ml in DMSO) to 12 μg/ml. The drug loaded solution (100 μL) was transferred to a Millicell insert, which was placed in a 24-wells plate filled with PBS pH 7.4 (700 μL). At set time points the PBS was refreshed and the removed PBS was analyzed for MMC content by UV absorbance at 363 nm. For VX970, a HPLC-MS/MS method was used (Kiesel et al.). Release experiments were performed with n=3.

[9] = in words; cited from earlier work

Compound: CCCCCCCCCCCCCCCCCC(=O)NCCCCOn1c(CCCC)nc2c(N)nc3ccccc3c21 [MEDI9197, telratolimod]
- release rate relative to comparator [1]: released slower than MMC

Compound: CO[C@@]12[C@H](COC(N)=O)C3=C(C(=O)C(C)=C(N)C3=O)N1C[C@@H]1N[C@@H]12 [Mitomycin C]
- duration of sustained mitomycin C release ([2]; polymer 6, 6, 7, 8 wt %, 0.52 mM, PBS pH 7.4 (FIG. 6)): 1 to 2 days
- dependence of drug release on polymer density ([2]; polymer 6, 6, 7 or 8 wt %): not dependent on the polymer density
- effect of higher precursor pH on burst release ([2]; polymer 6, precursor pH 8.5, 9.0 or 9.5): did not give rise to an increased burst release
- time of release from Pluronic-based RTGel hydrogel [3]: 1 to 2 days
- half-life in the peritoneal cavity [4]: 1 to 1.5 h
- patients who developed severe bone marrow suppression [5]: 28%
- survival [6]: better survival
- concentration required to kill 90% of the cells ([7]; exposure time more than 10 hours): 0.1 µg/mL
- concentration needed to kill 90% of the cells in culture ([7]; exposure time shorter than one hour): 5 µg/mL

Compound: CNCc1ccc(-c2cc(-c3nc(-c4ccc(S(=O)(=O)C(C)C)cc4)cnc3N)on2)cc1 [VX-970, berzosertib]
- release rate relative to MMC [8]: released slower than MMC
- solubility in water [9]: insoluble in water

Compound: CC(=O)O[C@@]12CO[C@@H]1C[C@H](O)[C@@]1(C)C(=O)[C@H](O)C3=C(C)[C@@H](OC(=O)[C@H](O)[C@@H](NC(=O)OC(C)(C)C)c4ccccc4)C[C@@](O)([C@@H](OC(=O)c4ccccc4)[C@H]21)C3(C)C [docetaxel]
- clearance from the peritoneal cavity [4]: cleared in less than day

Compound: CC(=O)O[C@H]1C(=O)[C@@]2(C)[C@H]([C@H](OC(=O)c3ccccc3)[C@]3(O)C[C@H](OC(=O)[C@H](O)[C@@H](NC(=O)c4ccccc4)c4ccccc4)C(C)=C1C3(C)C)[C@]1(OC(C)=O)CO[C@@H]1C[C@@H]2O [paclitaxel]
- clearance from the peritoneal cavity [4]: cleared in less than day

Reference: US20260034222A1, “HYDROGEL COMPOSITION FOR THE TREATMENT OF PERITONEAL DISEASES” (UPyTher B.V., priority 2023, published 2026)
